Data on 29 compounds can be found in patent US10913733B2, “Substituted piperidines thiazolyl acetamides as glycosidase inhibitors and uses thereof” (priority 2015, dated 2021).

This assay addresses human O-GlcNAcase (Homo sapiens (Human), UniProt O60502). Nature of the assay: Assay for determination of KI values for inhibition of O-GlcNAcase activity. To be noted: purified human O-GlcNAcase 0.7 nM; substrate 2 mM 4-Methylumbelliferyl N-acetyl-β-D-glucosaminide; pH 7.0; room temperature; Cheng-Prusoff; read-out: hOGA Ki. The assay is classed as biochemical. The procedure:
Assay for Determination of KI Values for Inhibition of O-GlcNAcase Activity
Experimental procedure for kinetic analyses: Enzymatic reactions were carried out in a reaction containing 50 mM NaH2PO4, 100 mM NaCl and 0.1% BSA (pH 7.0) using 2 mM 4-Methylumbelliferyl N-acetyl-β-D-glucosaminide dihydrate (Sigma M2133) dissolved in ddH2O, as a substrate. The amount of purified human O-GlcNAcase enzyme used in the reaction was 0.7 nM. Test compound of varying concentrations was added to the enzyme prior to initiation of the reaction. The reaction was performed at room temperature in a 96-well plate and was initiated with the addition of substrate. The production of fluorescent product was measured every 60 sec for 45 min with a Tecan Infinite M200 plate-reader with excitation at 355 nm and emission detected at […], with 4-Methylumbelliferone (Sigma M1381) used to produce a standard curve. The slope of product production was determined for each concentration of compound tested and plotted, using standard curve fitting algorithms for sigmoidal dose response curves. The values for a four parameter logistic curve fit of the data were determined. KI values were determined using the Cheng-Prusoff equation; the Km of O-GlcNAcase for substrate was 0.2 mM.

Sequence of human O-GlcNAcase (O60502 whole entry): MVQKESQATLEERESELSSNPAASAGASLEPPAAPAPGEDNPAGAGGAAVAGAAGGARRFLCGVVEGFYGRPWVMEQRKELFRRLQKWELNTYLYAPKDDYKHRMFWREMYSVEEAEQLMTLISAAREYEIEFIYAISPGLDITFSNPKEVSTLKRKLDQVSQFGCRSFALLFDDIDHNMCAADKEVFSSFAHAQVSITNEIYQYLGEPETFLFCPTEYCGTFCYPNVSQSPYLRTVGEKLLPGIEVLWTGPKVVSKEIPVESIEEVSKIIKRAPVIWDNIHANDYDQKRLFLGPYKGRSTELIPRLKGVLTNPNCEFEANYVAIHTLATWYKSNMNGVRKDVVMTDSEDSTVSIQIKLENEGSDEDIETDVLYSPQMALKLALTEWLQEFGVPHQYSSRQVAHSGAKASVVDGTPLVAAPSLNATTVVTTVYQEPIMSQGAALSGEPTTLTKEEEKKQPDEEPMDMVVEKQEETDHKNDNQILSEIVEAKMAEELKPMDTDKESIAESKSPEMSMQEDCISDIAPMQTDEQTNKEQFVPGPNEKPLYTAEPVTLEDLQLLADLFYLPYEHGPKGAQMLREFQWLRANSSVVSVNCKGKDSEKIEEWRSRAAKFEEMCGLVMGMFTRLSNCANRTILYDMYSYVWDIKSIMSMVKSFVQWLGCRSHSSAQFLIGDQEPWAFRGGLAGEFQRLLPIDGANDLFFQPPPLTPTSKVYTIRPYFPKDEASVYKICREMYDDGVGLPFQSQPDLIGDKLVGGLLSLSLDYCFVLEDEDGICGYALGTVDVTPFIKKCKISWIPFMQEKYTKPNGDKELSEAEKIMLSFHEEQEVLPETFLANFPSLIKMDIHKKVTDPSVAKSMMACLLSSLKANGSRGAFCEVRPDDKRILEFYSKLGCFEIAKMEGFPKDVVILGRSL

Turning to `CC(=O)Nc1ncc(CN2CC/C(=C/c3ccc(F)nc3)C[C@H]2C)s1` [Example 51, (R,Z)—N-(5-((4-((6-fluoropyridin-3-yl)methylene)-2-methylpiperidin-1-yl)methyl)thiazol-2-yl)acetamide], the Ki came to 218 nM.

`CC(=O)Nc1ncc(CN2CCC(=Cc3ccc(C(N)=O)cc3)CC2)s1` [Example 9, 4-((1-((2-acetamidothiazol-5-yl)methyl)-piperidin-4-ylidene)methyl)benzamide]: the Ki came out at 0.294 nM.

As for `CC(=O)Nc1ncc(CN2CCC(=Cc3ccc(C(=O)N(C)C)cc3)CC2)s1` [Example 31, 4-((1-((2-acetamidothiazol-5-yl)methyl)piperidin-4-ylidene)methyl)-N,N-dimethylbenzamide], the Ki came out at 0.117 nM.

`C=CCOc1ccc(C=C2CCN(Cc3cnc(NC(C)=O)s3)CC2)cc1` [Example 45, N-{5-[(4-{[4-(prop-2-en-1-yloxy)phenyl]methylidene}piperidin-1-yl)methyl]-1,3-thiazol-2-yl}acetamide]: the Ki is 6.11 nM.

As to `CC(=O)Nc1ncc(CN2CCC(=Cc3cccc(O)c3)CC2)s1` [Example 44, N-(5-((4-(3-hydroxybenzylidene)piperidin-1-yl)methyl)thiazol-2-yl)acetamide], the Ki is 1.13 nM.

With `CC(=O)Nc1ncc(CN2CCC(=Cc3ccc(F)nc3)CC2)s1` [Example 2, N-(5-((4-((6-fluoropyridin-3-yl)methylene)piperidin-1-yl)methyl)thiazol-2-yl)acetamide], the Ki is 2.08 nM.

For the compound `COc1ccc(C=C2CCN(Cc3cnc(NC(C)=O)s3)CC2)cc1OC` [Example 1, N-(5-((4-(3,4-dimethoxybenzylidene)piperidin-1-yl)methyl)thiazol-2-yl)acetamide], the Ki worked out at 0.392 nM.

For `CC(=O)Nc1ncc(CN2CCC(=Cc3ccc(O)nc3)CC2)s1` [Example 3, N-(5-((4-((6-hydroxypyridin-3-yl)methylene)piperidin-1-yl)methyl)thiazol-2-yl)acetamide], the Ki came to 1.09 nM.

`CC(=O)Nc1ncc(CN2CCC(=Cc3cccc(CC(N)=O)c3)CC2)s1` [Example 10, 2-(3-((1-((2-acetamidothiazol-5-yl)methyl)-piperidin-4-ylidene)methyl)phenyl) acetamide]: the Ki was 0.614 nM.

For `CC(=O)Nc1ncc(CN2CCC(=Cc3ccc(-c4ccccc4)cc3)CC2)s1` [Example 48, N-(5-((4-([1,1′-biphenyl]-4-ylmethylene)piperidin-1-yl)methyl)thiazol-2-yl)acetamide], the Ki came out at 53.8 nM.

As to `COc1ccc(C=C2CCN(Cc3cnc(NC(C)=O)s3)CC2)cc1O` [Example 23, N-[5-({4-[(3-hydroxy-4-methoxyphenyl)methylidene]piperidin-1-yl}methyl)-1,3-thiazol-2-yl]acetamide], the Ki was 1.51 nM.

With `COc1cccc(C=C2CCN(Cc3cnc(NC(C)=O)s3)CC2)c1OC` [Example 16, N-[5-({4-[(2,3-dimethoxyphenyl)methylidene]piperidin-1-yl}methyl)-1,3-thiazol-2-yl]acetamide], the inhibition constant (Ki) was determined as 3.4 nM.

For the compound `CCc1ccc(C=C2CCN(Cc3cnc(NC(C)=O)s3)CC2)cc1` [Example 12, N-(5-((4-(4-ethylbenzylidene)piperidin-1-yl)methyl)thiazol-2-yl)acetamide], the Ki is 0.703 nM.

Consider `CC(=O)Nc1ncc(CN2CCC(=Cc3ccc(C)cc3)CC2)s1` [Example 13, N-(5-((4-(4-methylbenzylidene)piperidin-1-yl)methyl)thiazol-2-yl)acetamide], for which the Ki is 0.741 nM.

With `CC(=O)Nc1ncc(CN2CC/C(=C/c3ccccc3)C[C@@H]2C)s1` [Example 34, (S,Z)-N-(5-{(4-benzylidene-2-methylpiperidin-1-yl)methyl)thiazol-2-yl)acetamide], the Ki came out at 1.04 nM.

As for `COC(=O)c1ccc(C=C2CCN(Cc3cnc(NC(C)=O)s3)CC2)cc1` [Example 24, methyl 4-((1-((2-acetamidothiazol-5-yl)methyl)piperidin-4-ylidene)methyl)benzoate], the Ki turned out to be 1.37 nM.

For the compound `CC(=O)Nc1ncc(CN2CCC(=Cc3cn[nH]c3)CC2)s1` [Example 8, N-(5-((4-((1H-pyrazol-4-yl)methylene)piperidin-1-yl)methyl)thiazol-2-yl)acetamide], the Ki turned out to be 0.387 nM.

Regarding `COc1ccc(/C=C2/CCN(Cc3cnc(NC(C)=O)s3)[C@@H](C)C2)cc1` [Example 38, (S,Z)-N-(5-((4-(4-methoxybenzylidene)-2-methylpiperidin-1-yl)methyl)thiazol-2-yl)acetamide], the Ki was determined as 0.287 nM.

As to `CNC(=O)c1ccc(C=C2CCN(Cc3cnc(NC(C)=O)s3)CC2)cc1` [Example 30, 4-[(1-{[2-(acetylamino)-1,3-thiazol-5-yl]methyl}piperidin-4-ylidene)methyl]-N-methylbenzamide], the Ki turned out to be 0.43 nM.

Consider `CC(=O)Nc1ncc(CN2CCC(=Cc3ccc4c(c3)CNC4=O)CC2)s1` [Example 21, N-(5-((4-((1-oxoisoindolin-5-yl)methylene)piperidin-1-yl)methyl)thiazol-2-yl)acetamide], for which the inhibition constant Ki came to 0.268 nM.

Consider `COc1ccc(/C=C2/CCN(Cc3cnc(NC(C)=O)s3)[C@H](C)C2)cc1` [Example 40, (R,Z)-N-(5-((4-(4-methoxybenzylidene)-2-methylpiperidin-1-yl)methyl)thiazol-2-yl)acetamide], for which the Ki was determined as 71.2 nM.

On to `CCOc1ccc(C=C2CCN(Cc3cnc(NC(C)=O)s3)CC2)cc1` [Example 14, N-(5-((4-(4-ethoxybenzylidene)piperidin-1-yl)methyl)thiazol-2-yl)acetamide], for which the Ki was determined as 1.45 nM.

Turning to `COc1cccc(C=C2CCN(Cc3cnc(NC(C)=O)s3)CC2)c1` [Example 43, N-(5-((4-(3-methoxybenzylidene)piperidin-1-yl)methyl)thiazol-2-yl)acetamide], the Ki is 2.93 nM.

Consider `CC(=O)Nc1ncc(CN2CC/C(=C\c3ccccc3)C[C@H]2C)s1` [Example 36, (R,E)-N-(5-((4-benzylidene-2-methylpiperidin-1-yl)methyl)thiazol-2-yl)acetamide], for which the inhibition constant Ki was 412 nM.

For `CC(=O)Nc1ncc(CN2CCC(=Cc3ccc4[nH]ccc4c3)CC2)s1` [Example 18, N-(5-{[4-(1H-indol-5-ylmethylidene)piperidin-1-yl]methyl}-1,3-thiazol-2-yl)acetamide], the Ki came out at 0.427 nM.

With `CC(=O)Nc1ncc(CN2CCC(=Cc3ccc(CCO)cc3)CC2)s1` [Example 50, N-(5-((4-(4-(2-hydroxyethyl)benzylidene)piperidin-1-yl)methyl)thiazol-2-yl)acetamide], the Ki came to 0.241 nM.

Consider `CC(=O)Nc1ncc(CN2CCC(=Cc3ccc4c(c3)OCCO4)CC2)s1` [Example 20, N-(5-{[4-(2,3-dihydro-1,4-benzodioxin-6-ylmethylidene)piperidin-1-yl]methyl}-1,3-thiazol-2-yl)acetamide], for which the Ki is 1.79 nM.

For the compound `CC(=O)Nc1ncc(CN2CCC(=Cc3ccccc3)CC2)s1` [Example 33, N-(5-{[4-(phenyl-methylidene)piperidin-1-yl]methyl}-1,3-thiazol-2-yl)acetamide], the inhibitory constant (Ki) was found to be 1.75 nM.

For the compound `CC(=O)Nc1ncc(CN2CCC(=Cc3ccc4c(c3)OCO4)CC2)s1` [Example 19, N-(5-{[4-(1,3-benzodioxol-5-ylmethylidene)piperidin-1-yl]methyl}-1,3-thiazol-2-yl)acetamide], the Ki amounted to 1.03 nM.
